Assay results taken from PMC5321753, “Enhanced expression of ADCY1 underlies aberrant neuronal signalling and behaviour in a syndromic autism model” (Nature Communications, 2017).

Experiments:
WT and Fmr1 KO mice [1] = assay: Audiogenic seizures (AGS) induced by 120 dB sound; format: in vivo, mouse; details: NB001 1 mg kg^-1 IP; for % Clonic/tonic seizure / % Death / % Wild running: 1 h before testing, 120 dB
Description: Audiogenic seizures (AGS) were examined with 21- to 24-day-old-mouse (7), as this phenotype is dependent on the age of the mouse and only detected in juvenile Frm1 KO mouse. Mouse was placed in a box (30 cm L × 17 cm W × 12 cm H) with a flat plastic lid. A personal alarm (Streetwise, item # SWPDAL) was taped to the lid of the box and wired to a DC power supply to keep the sound amplitude constant. The mouse was allowed to acclimatize to the box for 5 min, following which 120 dB sound was emitted from the alarm for 2 min. The number of mice undergoing seizure activity within the 2-min period was counted. Audiogenic seizures were classified into different stages: wild running, clonic/tonic seizure and death.
(§1) NB001 was dissolved in water to give a 25 mM stock solution. The stock was diluted in saline and IP injected into mice at 1 mg kg^−1 body weight. In all cases, the drug was administered 1 h before testing. Control mice were treated similarly but injected with saline.
To inhibit phosphodiesterase (PDE), rolipram was dissolved in 10% kolliphore and IP injected into mice at 0.5 or 0.03 mg kg^−1. The use of the higher dose (that is, 0.5 mg kg^−1) was to ensure sufficient inhibition of PDE[44][45]. […] Rolipram- or vehicle (10% kolliphore)-injected mice were examined with light/dark test and AGS 30 min after drug administration.

Akt = assay: Immunoblot of phosphorylated and total Akt in hippocampus after i.p. injection; format: in vivo, mouse; details: acute NB001 1 mg kg^-1 IP, 1 h after injection
Description: Hippocampal tissues were collected from 3-month-(+/−10 days) old mice. […] The primers used for Adcy1 were […] (forward) and […] (reverse). The protein levels in hippocampal tissues collected from mice were determined by western blot using anti-ADCY1 (Sigma, Cat # SAB4500146-100UG, 1:1,000 dilution), anti-p-ERK1/2 (Cell Signaling, Cat # 9101L, 1:1,000 dilution), anti-pAkt (Cell Signaling, Cat # 9271, 1:1,000 dilution), anti-pS6K1 (Cell Signaling, Cat # 9204L for the detection of phosphorylation at Thr421/Ser424, Cat # 9234S for the detection of phosphorylation at Thr389, 1:1,000 dilution), anti-ERK1/2 (Cell Signaling, Cat # 9102L, 1:1,000 dilution), anti-Akt (Cell Signaling, Cat # 9272S, 1:1,000 dilution), anti-S6K1 (Cell Signaling, Cat # 9202L, 1:1,000 dilution) and anti-β-actin antibody (Sigma, Cat # A5441; 1:5,000 dilution). Following incubations with infrared fluorescence (IRDye)-conjugated secondary antibodies (1:5,000, LI-COR Biosciences, Cat # 926–32211 and 926–68070), signals were detected using the Odyssey system (LI-COR Biosciences). The un-cropped western blots are shown in Supplementary Fig. 10.
as §1

WT and Fmr1 KO mice [2] = assay: Marble burying test; format: in vivo, mouse; details: NB001 1 mg kg^-1 IP, 1 h before testing
Description: (§2) Repetitive behaviour was determined by the marble burying test as described. 3-month-(+/−10 days) old mouse was placed in a regular mouse cage filled with 7.6 cm-deep bedding for 1 h before the test. The mouse was then briefly removed from the testing box and 15 marbles were evenly arranged in a 5 × 3 pattern on the surface of the bedding. The mouse was reintroduced into the testing box and was allowed to bury marbles for 10 min. At the end of the testing period, the number of marbles that were fully buried, partially buried and left on the surface was counted.
as §1

WT and Fmr1 KO mice [3] = assay: 3-chamber social interaction test; format: in vivo, mouse; details: NB001 1 mg kg^-1 IP, 1 h before testing; relative to WT level
Description: Social interaction was determined by the 3-chamber test as described. Mouse at 3 months (+/−10 days) of age was placed in a 3-chamber social interaction box and allowed to explore freely for 5 min. […] During the test, mouse was placed in the center chamber and the entrances to the side chambers were blocked. A novel stimulus mouse in a wire enclosure and an empty wire enclosure were placed in one of the side chambers, respectively. The entrances were then opened and the activity of the test mouse was recorded. Time spent in each of the chambers and time spent sniffing the stranger mouse enclosure versus the empty enclosure were recorded.
as §1

WT mice = assay: Behavioural examinations in WT mice (Fig. 5e-h; Table 2); format: in vivo, mouse; details: NB001 1 mg kg^-1 IP, marble burying, light/dark, social interaction, AGS
Description: as §2
Light/dark test was examined as described in our previous study. Light/dark test was performed using 3-month (+/−10 days) old mouse, which was first placed in the dark half of the chamber (Coulbourn Instruments). […] The time spent in each chamber and the number of entries into the lit side were recorded.
Audiogenic seizures (AGS) were examined with 21- to 24-day-old-mouse (7), as this phenotype is dependent on the age of the mouse and only detected in juvenile Frm1 KO mouse. […] The number of mice undergoing seizure activity within the 2-min period was counted. […]
Social interaction was determined by the 3-chamber test as described. […] The entrances were then opened and the activity of the test mouse was recorded. Time spent in each of the chambers and time spent sniffing the stranger mouse enclosure versus the empty enclosure were recorded. […]

[4] = Mouse liver microsome stability assay; format: in vitro ADME; details: incubation with liver microsomes, 0-60 min
Description: (§3) Following IP injection of NB001 (20 mg kg^−1), mice were killed at various time points, and 0.5–0.8 ml of blood was drawn from a cardiac puncture into a 1 ml syringe, which was pre-treated with NaHeparin. The blood was collected into 1.5 ml microfuge tubes coated with NaHeparin and put on ice immediately. Samples were centrifuged at 15,000 r.p.m. for 15 min. Blood plasma was collected from the upper layer, leaving the blood cells in the tube. The plasma was frozen at −80 °C for later analysis. Brains were taken out and weighed immediately. Brains were frozen at −80 °C for later preparation and analysis. The samples were subjected to LC/MS/MS with Turbo-Ionspray Interface used in the positive ion-mode (Pharmacokinetics Core, University of Michigan). Mouse liver microsome stability assay was performed by the Pharmacokinetics Core at University of Michigan.

[5] = NB001 pharmacokinetic study, plasma and brain levels by LC/MS/MS; format: in vivo, mouse
Description: as §3

mice = assay: NB001 toxicology study (body weight, organ weight, histology); format: in vivo, mouse
Description: Mice at 3 months (+/−10 days) of age were IP injected with NB001 twice daily at 50 mg kg^−1 for 2 weeks. Clinical observations were performed twice daily and body weights were measured on various days during the dosing regimen. At the end of the dosing period, mice were killed and blood was collected for clinical pathology (Diagnostic Center for Population and Animal Health, Michigan State University). The liver and kidney were collected and fixed in 10% buffered formalin (INVIVO facility at Michigan State University).

ADCY1 = tested on: ADCY1; set-up: method as in PMID 21228397; details: intact cells; cited from earlier work
[6] = IP injection, 20 mg kg^-1, mice
[7] = NB001 50 mg kg^-1 IP twice a day for 14 days

## Nc1ncnc2c1ncn2CCNCCCCCO [NB001, 5-{[2-(6-amino-9H-purin-9-yl)ethyl]amino}-1-pentanol]
WT and Fmr1 KO mice [1]; Fmr1 KO mice
  occurrence of AGS versus vehicle (saline)-injected controls: less occurrence
  % Clonic/tonic seizure: 5.8%
  % Death: 5.8%
  % Wild running: 35.2%
WT and Fmr1 KO mice [1]; WT mice
  % Clonic/tonic seizure: 0%
  % Death: 0%
  % Wild running: 0%
Akt
  level of pAkt: not affected
WT and Fmr1 KO mice [2]
  marble burying behaviour, NB001-injected Fmr1 KO versus WT mice: comparable
WT and Fmr1 KO mice [3]
  reduced social interaction in Fmr1 KO mice: normalized
WT mice
  behaviour in WT mice: did not cause measurable changes
[4]
  stability in mouse liver microsome assay: stable and resistant to degradation
[5]; [6]
  absorption to plasma: absorbed to the blood stream
  distribution to brain: distributed to the brain
[5]; conclusion from plasma/brain levels and ref 40
  blood-brain barrier crossing: can cross the blood–brain barrier
mice; [7]
  body weight: did not affect
  weight of major organs including heart/lung, kidney and liver: did not affect
mice; NB001 50 mg kg^-1 IP twice a day for 14 days, H&E staining
  histopathology in kidney and liver: no significant sign of histopathology
mice; NB001 50 mg kg^-1 twice a day for 14 days
  side effects following two weeks of high dose administration: no significant side effects
ADCY1
  inhibition of ADCY1 activity versus other types of adenylyl cyclases: preferentially inhibits ADCY1 activity over other types of adenylyl cyclases
